27 compounds from patent US10544106B2, “Certain chemical entities, compositions, and methods” (NeuPharma, Inc., priority 2016, dated 2020) can be followed below.

As usually defined, the inhibition is the share of the control response that was lost under treatment. A lower inhibition goes with a weak effect. A word on the IC50: it is the point on the concentration scale where inhibition reaches its midpoint. A lower IC50 goes with greater potency in that assay.

The structures appear in SMILES notation.

BTK, sequence (Q06187 whole entry): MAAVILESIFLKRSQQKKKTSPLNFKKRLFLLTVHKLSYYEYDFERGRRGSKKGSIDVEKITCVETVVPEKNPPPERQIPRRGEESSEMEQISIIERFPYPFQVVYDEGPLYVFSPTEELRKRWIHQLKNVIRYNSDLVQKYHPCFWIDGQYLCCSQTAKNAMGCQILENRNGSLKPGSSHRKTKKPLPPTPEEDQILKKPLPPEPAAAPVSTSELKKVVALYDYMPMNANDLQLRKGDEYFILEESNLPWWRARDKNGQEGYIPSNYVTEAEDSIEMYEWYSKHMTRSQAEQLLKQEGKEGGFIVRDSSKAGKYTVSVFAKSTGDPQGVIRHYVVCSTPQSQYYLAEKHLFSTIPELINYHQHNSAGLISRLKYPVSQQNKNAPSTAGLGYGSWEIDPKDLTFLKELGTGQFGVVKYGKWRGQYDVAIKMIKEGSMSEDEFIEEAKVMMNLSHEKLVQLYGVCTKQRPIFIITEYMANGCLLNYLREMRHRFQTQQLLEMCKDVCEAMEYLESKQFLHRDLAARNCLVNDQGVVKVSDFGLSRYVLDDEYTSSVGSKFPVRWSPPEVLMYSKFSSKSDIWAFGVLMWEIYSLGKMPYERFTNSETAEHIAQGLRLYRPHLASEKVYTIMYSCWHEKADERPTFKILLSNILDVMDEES

One assay has as its target BTK (Homo sapiens (Human), UniProt Q06187). The assay can be described thus: Z'-LYTE kinase inhibition assay against BTK. It is filed as biochemical. The settings on record: compound at 100 nM; ATP concentration at Km. The method, then:
Inhibitory activities of compounds against BTK, EGFR T790M, EGFR L858R, and EGFR L858R/T790M were measured using Z′-LYTE® Method from Life Technologies as briefly described in the following.
Test Compounds are screened in 1% DMSO (final) in the well. For 10 point titrations, 3-fold serial dilutions are conducted from the starting concentration. All ATP Solutions are diluted to a 4× working concentration in Kinase Buffer (50 mM HEPES pH 7.5, 0.01% BRIJ-35, 10 mM MgCl2, 1 mM EGTA). Peptide/Kinase Mixtures are diluted to a 2× working concentration in the appropriate Kinase Buffers as described below. • (i) Peptide/Kinase Mixtures for measurement of EGFR (ErbB1) L858R: • The 2×EGFR (ErbB1) L858R/Tyr 04 mixture is prepared in 50 mM HEPES pH 7.5, 0.01% BRIJ-35, 10 mM MgCl2, 4 mM MnCl2. 1 mM EGTA, 2 mM DTT. The final 10 μL Kinase Reaction consists of 0.2-1.68 ng EGFR (ErbB1) L858R and 2 μM Tyr 04 in 50 mM HEPES pH 7.5, 0.01% BRIJ-35, 10 mM MgCl2, 2 mM MnCl2, 1 mM EGTA, 1 mM DTT. After the 1 hour Kinase Reaction incubation, 5 μL of a 1:64 dilution of Development Reagent B is added. • (ii) Peptide/Kinase Mixtures for measurement of EGFR (ErbB1) T790M: The 2×EGFR (ErbB1) T790M/Tyr 04 mixture is prepared in 50 mM HEPES pH 6.5, 0.01% BRIJ-35, 10 mM MgCl2, 1 mM EGTA, 0.02% NaN3. The final 10 μL Kinase Reaction consists of 3.9-30.2 ng EGFR (ErbB1) T790M and 2 μM Tyr 04 in 50 mM HEPES pH 7.0, 0.01% BRIJ-35, 10 mM MgCl2, 1 mM EGTA, 0.01% NaN3. After the 1 hour Kinase Reaction incubation, 5 μL of a 1:64 dilution of Development Reagent B is added. • (iii) Peptide/Kinase Mixtures for measurement of EGFR (ErbB1) L858R/T790M: The 2×EGFR (ErbB1) T790M L858R/Tyr 04 mixture is prepared in 50 mM HEPES pH 6.5, 0.01% BRIJ-35, 10 mM MgCl2, 1 mM EGTA, 0.02% NaN3. The final 10 μL Kinase Reaction consists of 0.38-4.22 ng EGFR (ErbB1) T790M L858R and 2 μM Tyr 04 in 50 mM HEPES pH 7.0, 0.01% BRIJ-35, 10 mM MgCl2, 1 mM EGTA, 0.01% NaN3. After the 1 hour Kinase Reaction incubation, 5 μL of a 1:64 dilution of Development Reagent B is added. • (iv) Peptide/Kinase Mixtures for measurement of BTK: The 2×BTK/Tyr 01 mixture is prepared in 50 mM HEPES pH 7.5, 0.010/BRIJ-35, 10 mM MgCl2, 1 mM EGTA. The final 10 μL Kinase Reaction consists of 1.04-10.4 ng BTK and 2 μM Tyr 01 in 50 mM HEPES pH 7.5, 0.01% BRIJ-35, 10 mM MgCl2, 1 mM EGTA. After the 1 hour Kinase Reaction incubation, 5 μL of a 1:256 dilution of Development Reagent B is added.
Reaction starts by 30-second shaking of mixture consisting of 2.5 μL 4× test compound, 5 μL 2× kinase reaction mixture and 2.5 μL 4×ATP Solution on Bar-coded Corning, low volume NBS, black 384-well plate (Corning Cat. #3676). Then the mixture is incubated for 60-minute at room temperature for the kinase reaction, followed by addition of 5 μL of a 1:1024 dilution of development reagent A and 30-second plate shake. The mixture is then incubated for another 60-minute at room temperature for development reaction. Finally fluorescence is read by plate reader.
The Z′-LYTE assay was carried out with ATP concentration at Km. The scale utilized in Tables 2-6 is as follows: ++ more than 50% inhibition and + less than 50% inhibition.
To determine IC50 of a compound against a kinase, a series of concentrations of the compound were tested for the inhibition. IC50 was calculated by plotting the concentration of compound vs the percentage of inhibition in treated wells using GraphPad Prism 5. […] The scale utilized in Table 7 is as follows: ++ less than 100 nM and + greater than 100 nM.
`C=CC(=O)N1CCCC(c2cc(-c3cccc(Nc4cccc(C(F)(F)F)c4)c3)cc3cncnc23)C1` (stereo not drawn) [C029, 1-(3-(6-(3-((3-(trifluoromethyl)phenyl)amino)phenyl)quinazolin-8-yl)piperidin-1-yl)prop-2-en-1-one]: the inhibition at 0.1 µM is < 50%.
The same measure, in the same setting: to `C=CC(=O)N1CCCC(c2cc(-c3ccc(Oc4ccccc4)cc3)cc3c(N)ncnc23)C1` (stereo not drawn) [C030, 1-(3-(4-amino-6-(4-phenoxyphenyl)quinazolin-8-yl)piperidin-1-yl)prop-2-en-1-one] belongs < 50%; to `C=CC(=O)N1CCCC(c2cc(-c3cccnc3)cc3cncnc23)C1` (stereo not drawn) [C031, 1-(3-(6-(pyridin-3-yl)quinazolin-8-yl)piperidin-1-yl)prop-2-en-1-one], < 50%.
As for `C=CC(=O)N1CCC(n2c(-c3ccccc3F)nc3cncnc32)C1` (stereo not drawn) [C032, 1-(3-(8-(2-fluorophenyl)-9H-purin-9-yl)pyrrolidin-1-yl)prop-2-en-1-one], the inhibition at 0.1 µM is < 50%.
Same read-out and setting: to `C=CC(=O)N1CCC(n2c(-c3ccccc3Cl)nc3cncnc32)C1` (stereo not drawn) [C033, 1-(3-(8-(2-chlorophenyl)-9H-purin-9-yl)pyrrolidin-1-yl)prop-2-en-1-one] belongs < 50%; to `C=CC(=O)N1CCCC(c2cc(-c3ccccc3)cc3c(N)ncnc23)C1` (stereo not drawn) [C034, 1-(3-(4-amino-6-phenylquinazolin-8-yl)piperidin-1-yl)prop-2-en-1-one], < 50%; to `C=CC(=O)Nc1cccc(-c2cc(-c3ccc(C(=O)Nc4cc(C)ccn4)cc3)cc3cnc(N)nc23)c1` [C036, 4-(8-(3-acrylamidophenyl)-2-aminoquinazolin-6-yl)-N-(4-methylpyridin-2-yl)benzamide], < 50%.
Same read-out and setting: as for `C=CC(=O)N1CCCC(c2ccc(-c3ccc(C(=O)Nc4ccccn4)cc3)c3cncnc23)C1` (stereo not drawn) [C037, 4-(8-(1-acryloylpiperidin-3-yl)quinazolin-5-yl)-N-(pyridin-2-yl)benzamide], the figure is < 50%; as for `C=CC(=O)Nc1cccc(-c2cc(-c3ccc(C)nc3)cc3cnc(N)nc23)c1` [C038, N-(3-(2-amino-6-(6-methylpyridin-3-yl)quinazolin-8-yl)phenyl)acrylamide], > 50%.
Turning to `C=CC(=O)Nc1cccc(-c2ccc(-c3ccc(C(=O)Nc4ccccn4)cc3)c3cncnc23)c1` [C039, 4-(8-(3-acrylamidophenyl)quinazolin-5-yl)-N-(pyridin-2-yl)benzamide], the inhibition at 0.1 µM is < 50%.
The same measure, in the same setting: as for `C=CC(=O)Nc1cccc(-c2cc(-c3ccc(C(=O)Nc4ccccn4)cc3)cc3cnc(N)nc23)c1` [C040, 4-(8-(3-acrylamidophenyl)-2-aminoquinazolin-6-yl)-N-(pyridin-2-yl)benzamide], the figure is < 50%; as for `C=CC(=O)Nc1cccc(-c2cc(-c3ccc(C(=O)Nc4cc(C)ccn4)cc3)cc3cncnc23)c1` [C041, 4-(8-(3-acrylamidophenyl)quinazolin-6-yl)-N-(4-methylpyridin-2-yl)benzamide], > 50%; as for `C=CC(=O)N1CCC(c2cc(-c3cccnc3)cc3cncnc23)C1` (stereo not drawn) [C043, 1-(3-(6-(pyridin-3-yl)quinazolin-8-yl)pyrrolidin-1-yl)prop-2-en-1-one], < 50%.
The same measure, in the same setting: as for `C=CC(=O)Nc1cccc(-c2cc(-c3ccc(C(=O)Nc4ccccn4)cc3)n3cnccc23)c1` [C044, 4-(5-(3-acrylamidophenyl)pyrrolo[1,2-c]pyrimidin-7-yl)-N-(pyridin-2-yl)benzamide], the figure is < 50%.
Turning to `C=CC(=O)N1CCCC(c2cc(-c3cccnc3)cc3cnc(N)nc23)C1` (stereo not drawn) [C045, 1-(3-(2-amino-6-(pyridin-3-yl)quinazolin-8-yl)piperidin-1-yl)prop-2-en-1-one], the inhibition at 0.1 µM was < 50%.
Regarding `C=CC(=O)N1CCC(c2cc(-c3ccc(C(=O)Nc4ccccn4)cc3)n3cnccc23)C1` (stereo not drawn) [C046, 4-(5-(1-acryloylpyrrolidin-3-yl)pyrrolo[1,2-c]pyrimidin-7-yl)-N-(pyridin-2-yl)benzamide], the inhibition at 0.1 µM is < 50%.
As to `C=CC(=O)N1CCC(c2cc(-c3ccccc3)cc3cncnc23)C1` (stereo not drawn) [C047, 1-(3-(6-phenylquinazolin-8-yl)pyrrolidin-1-yl)prop-2-en-1-one], the inhibition at 0.1 µM is > 50%.
The same measure, in the same setting: as for `C=CC(=O)N1CCC(c2cc(-c3ccc(Oc4ccccc4)cc3)cc3cncnc23)C1` (stereo not drawn) [C048, 1-(3-(6-(4-phenoxyphenyl)quinazolin-8-yl)pyrrolidin-1-yl)prop-2-en-1-one], the figure is > 50%.
The same measure, in the same setting: as for `C=CC(=O)N1CCC(c2ccc(-c3ccc(C(=O)Nc4ccccn4)cc3)c3cncnc23)C1` (stereo not drawn) [C049, 4-(8-(1-acryloylpyrrolidin-3-yl)quinazolin-5-yl)-N-(pyridin-2-yl)benzamide], the figure is < 50%; as for `C=CC(=O)Nc1cccc(-c2cc(-c3ccc(C(=O)Nc4ccccc4)nc3)cc3cncnc23)c1` [C050, 5-(8-(3-acrylamidophenyl)quinazolin-6-yl)-N-phenylpicolinamide], > 50%.
The same measure, in the same setting: to `C=CC(=O)Nc1cccc(-c2cc(-c3ccc(C(=O)Nc4ccccc4)cc3)cc3cncnc23)c1` [C053, 4-(8-(3-acrylamidophenyl)quinazolin-6-yl)-N-phenylbenzamide] belongs > 50%.
With `C=CC(=O)N1CCC(c2cc(-c3ccc(C(=O)Nc4ccccc4)cc3)n3cnccc23)C1` (stereo not drawn) [C054, 4-(5-(1-acryloylpyrrolidin-3-yl)pyrrolo[1,2-c]pyrimidin-7-yl)-N-phenylbenzamide], the inhibition at 0.1 µM is < 50%.
For `C=CC(=O)Nc1cccc(-c2cc(-c3cncc(C(F)(F)F)c3)cc3cncnc23)c1` [C055, N-(3-(6-(5-(trifluoromethyl)pyridin-3-yl)quinazolin-8-yl)phenyl)acrylamide], the inhibition at 0.1 µM was > 50%.
Same read-out and setting: to `C=CC(=O)N1CCC(c2ccc(-c3ccc(C(=O)Nc4ccccn4)cc3)c3c(N)ncnc23)C1` (stereo not drawn) [C056, 4-(8-(1-acryloylpyrrolidin-3-yl)-4-amino-quinazolin-5-yl)-(N-pyridin-2-yl)benzamide] belongs < 50%; to `C=CC(=O)Nc1cccc(-c2cc(-c3ccc(Oc4ccccc4)cc3)n3cnccc23)c1` [C057, N-(3-(7-(4-phenoxyphenyl)pyrrolo[1,2-c]pyrimidin-5-yl)phenyl)acrylamide], < 50%.
On the same count and under the same terms, as for `C=CC(=O)N1CCC(c2cc(-c3ccc(C(=O)Nc4cccc(C(F)(F)F)c4)cc3)n3cnccc23)C1` (stereo not drawn) [C058, 4-(5-(1-acryloylpyrrolidin-3-yl)pyrrolo[1,2-c]pyrimidin-7-yl)-N-(3-(trifluoro-methyl)phenyl)benzamide], the figure is < 50%.
The same measure, in the same setting: as for `C=CC(=O)Nc1cccc(-c2cc(-c3ccc(C(=O)Nc4ccccc4)nc3)cc3cnc(N)nc23)c1` [C059, 5-(8-(3-acrylamidophenyl)-2-aminoquinazolin-6-yl)-N-phenylpicolinamide], the figure is < 50%.

Staying with this assay, now noted: series of concentrations; GraphPad Prism 5.
As for `C=CC(=O)Nc1cccc(-c2cc(-c3ccc(C)nc3)cc3cnc(N)nc23)c1` [C038, N-(3-(2-amino-6-(6-methylpyridin-3-yl)quinazolin-8-yl)phenyl)acrylamide], the IC50 is < 100 nM.
On the same count and under the same terms, as for `C=CC(=O)N1CCC(c2cc(-c3ccc(Oc4ccccc4)cc3)cc3cncnc23)C1` (stereo not drawn) [C048, 1-(3-(6-(4-phenoxyphenyl)quinazolin-8-yl)pyrrolidin-1-yl)prop-2-en-1-one], the figure is < 100 nM.
Take `C=CC(=O)Nc1cccc(-c2cc(-c3ccc(C(=O)Nc4ccccc4)cc3)cc3cncnc23)c1` [C053, 4-(8-(3-acrylamidophenyl)quinazolin-6-yl)-N-phenylbenzamide]: the IC50 is < 100 nM.
